Experimental data reported in PubChem BioAssay (NCI).
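In this assay, cells in 96-well plates receive the compound at five concentrations for 48 hours. Endpoints are linearly interpolated between the surrounding concentrations. Here, GI50 denotes the concentration required for 50% inhibition of growth. TGI is the concentration that stops growth completely.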

Assays:
Assay in all cases: NCI-60 cell line screen, 48 h
[1] = tested on: TK-10 renal
[2] = tested on: NCI-H226 lung
[3] = tested on: HCC-2998 colon
[4] = tested on: A498 renal
[5] = tested on: A549 NSCLC
[6] = tested on: SF-539 CNS
[7] = tested on: U251 CNS
[8] = tested on: SR leukemia
[9] = tested on: NCI/ADR-RES ovarian
[10] = tested on: ACHN renal
[11] = tested on: SK-MEL-28 melanoma
[12] = tested on: BT-549 breast
[13] = tested on: CAKI-1 renal
[14] = tested on: SNB-75 CNS
[15] = tested on: NCI-H522 lung
[16] = tested on: RPMI-8226 leukemia
[17] = tested on: MCF7 breast
[18] = tested on: M14 melanoma
[19] = tested on: T-47D breast
[20] = tested on: K-562 leukemia
[21] = tested on: EKVX NSCLC
[22] = tested on: NCI-H460 lung
[23] = tested on: HL-60(TB) leukemia
[24] = tested on: SF-295 CNS
[25] = tested on: MDA-MB-468 breast
[26] = tested on: PC-3 prostate
[27] = tested on: HCT-116 colon
[28] = tested on: UACC-257 melanoma
[29] = tested on: SNB-19 CNS
[30] = tested on: HCT-15 colon
[31] = tested on: SF-268 CNS
[32] = tested on: OVCAR-3 ovarian
[33] = tested on: UACC-62 melanoma
[34] = tested on: MDA-MB-435
[35] = tested on: OVCAR-5 ovarian
[36] = tested on: UO-31 renal
[37] = tested on: MOLT-4 leukemia
[38] = tested on: OVCAR-4 ovarian
[39] = tested on: 786-0 renal
[40] = tested on: NCI-H23 lung
[41] = tested on: SK-MEL-2 melanoma
[42] = tested on: MALME-3M melanoma
[43] = tested on: SK-OV-3 ovarian
[44] = tested on: OVCAR-8 ovarian
[45] = tested on: RXF 393 renal
[46] = tested on: COLO 205 colon
[47] = tested on: SW-620 colon
[48] = tested on: MDA-MB-231 breast
[49] = tested on: CCRF-CEM leukemia
[50] = tested on: LOX IMVI melanoma
[51] = tested on: SN12C renal
[52] = tested on: SK-MEL-5 melanoma
[53] = tested on: HS 578T breast
[54] = tested on: KM12 colon
[55] = tested on: HOP-92 NSCLC
[56] = tested on: DU-145 prostate
[57] = tested on: HOP-62 NSCLC
[58] = tested on: IGROV1 ovarian
[59] = tested on: HT29 colon

Compound `O=c1cc(-c2ccccc2)oc2cc(OCCCC[P+](c3ccccc3)(c3ccccc3)c3ccccc3)cc(O)c12` has a GI50 [1] of 0.903 µM, a TGI [1] of 3.27 µM and a GI50 [2] of 1.5 µM. It also gave a TGI [2] of 4.2 µM, a GI50 [3] of 0.412 µM and a TGI [3] of 1.54 µM. The GI50 [4] was 2.03 µM, the TGI [4] was 5.59 µM and the GI50 [5] was 2.82 µM. The TGI [5] was 16.5 µM, the GI50 [6] was 0.892 µM and the TGI [6] was 2.15 µM. The GI50 [7] was 0.716 µM, the TGI [7] was 2.16 µM and the GI50 [8] was 0.834 µM. The TGI [8] was > 100 µM, the GI50 [9] was 3.29 µM and the TGI [9] was > 100 µM. The GI50 [10] was 0.996 µM, the TGI [10] was 2.39 µM and the GI50 [11] was 0.601 µM. The TGI [11] was 1.83 µM, the GI50 [12] was 0.542 µM and the TGI [12] was 1.74 µM. For the same compound, the GI50 [13] was 1.63 µM, the TGI [13] was 4.34 µM and the GI50 [14] was 0.419 µM. For the same compound, the TGI [14] was 1.68 µM, the GI50 [15] was 0.789 µM and the TGI [15] was 2.54 µM. The GI50 [16] was 0.303 µM, the TGI [16] was 1.82 µM and the GI50 [17] was 0.499 µM. For the same compound, the TGI [17] was 2.28 µM, the GI50 [18] was 0.408 µM and the TGI [18] was 1.54 µM. For the same compound, the GI50 [19] was 0.273 µM, the TGI [19] was 2.77 µM and the GI50 [20] was 0.326 µM. The TGI [20] was > 100 µM, the GI50 [21] was 0.494 µM and the TGI [21] was 1.86 µM. It also gave a GI50 [22] of 0.509 µM, a TGI [22] of 1.81 µM and a GI50 [23] of 0.246 µM. For the same compound, the TGI [23] was 1.82 µM, the GI50 [24] was 1.41 µM and the TGI [24] was 2.76 µM. It also gave a GI50 [25] of 0.148 µM, a TGI [25] of 0.433 µM and a GI50 [26] of 0.899 µM. It also gave a TGI [26] of 2.7 µM, a GI50 [27] of 0.863 µM and a TGI [27] of 2.12 µM. The GI50 [28] was 0.548 µM, the TGI [28] was 1.9 µM and the GI50 [29] was 0.41 µM. It also gave a TGI [29] of 1.42 µM, a GI50 [30] of 1.02 µM and a TGI [30] of 2.48 µM. For the same compound, the GI50 [31] was 1.29 µM, the TGI [31] was 3.56 µM and the GI50 [32] was 0.526 µM. It also gave a TGI [32] of 2.22 µM, a GI50 [33] of 0.573 µM and a TGI [33] of 1.56 µM. For the same compound, the GI50 [34] was 0.356 µM, the TGI [34] was 1.39 µM and the GI50 [35] was 1.58 µM. For the same compound, the TGI [35] was 5.11 µM, the GI50 [36] was 1.39 µM and the TGI [36] was 2.89 µM. It also gave a GI50 [37] of 0.771 µM, a TGI [37] of 3.24 µM and a GI50 [38] of 0.549 µM. The TGI [38] was 6.76 µM, the GI50 [39] was 1.86 µM and the TGI [39] was 3.84 µM. For the same compound, the GI50 [40] was 1.1 µM, the TGI [40] was 2.74 µM and the GI50 [41] was 0.238 µM. It also gave a TGI [41] of 0.603 µM, a GI50 [42] of 0.397 µM and a TGI [42] of 1.19 µM. For the same compound, the GI50 [43] was 0.728 µM, the TGI [43] was 1.92 µM and the GI50 [44] was 1.04 µM. For the same compound, the TGI [44] was 6.1 µM, the GI50 [45] was 0.707 µM and the TGI [45] was 2.15 µM. It also gave a GI50 [46] of 1.47 µM, a TGI [46] of 3.01 µM and a GI50 [47] of 0.997 µM. The TGI [47] was 2.67 µM, the GI50 [48] was 1.07 µM and the TGI [48] was 2.57 µM. It also gave a GI50 [49] of 0.826 µM, a TGI [49] of 4.75 µM and a GI50 [50] of 1.13 µM. It also gave a TGI [50] of 2.36 µM, a GI50 [51] of 0.603 µM and a TGI [51] of 1.66 µM. It also gave a GI50 [52] of 0.276 µM, a TGI [52] of 0.693 µM and a GI50 [53] of 1.32 µM. It also gave a TGI [53] of 4.27 µM, a GI50 [54] of 0.738 µM and a TGI [54] of 2.13 µM. For the same compound, the GI50 [55] was 0.292 µM, the TGI [55] was 1.13 µM and the GI50 [56] was 0.813 µM. It also gave a TGI [56] of 2.97 µM, a GI50 [57] of 1.42 µM and a TGI [57] of 2.87 µM. For the same compound, the GI50 [58] was 0.785 µM, the TGI [58] was 2.36 µM and the GI50 [59] was 2.6 µM. For the same compound, the TGI [59] was 11.3 µM.

With `Cc1ccccc1[C@H]1C(C(=O)c2ccc(Cl)cc2)C2(N[C@@H]1c1ccccc1)C(=O)Nc1ccccc12` (some centres undefined) the GI50 [1] was 6.86 µM, the TGI [1] was 15.8 µM and the GI50 [2] was 5.91 µM. It also gave a TGI [2] of 12.1 µM, a GI50 [3] of 5.95 µM and a TGI [3] of 12.2 µM. The GI50 [4] was 6.77 µM, the TGI [4] was 12.9 µM and the GI50 [5] was 5.81 µM. It also gave a TGI [5] of 20.4 µM, a GI50 [6] of 6.95 µM and a TGI [6] of 13.6 µM. For the same compound, the GI50 [7] was 5.56 µM, the TGI [7] was 13.1 µM and the GI50 [9] was 4.41 µM. For the same compound, the TGI [9] was 10.8 µM, the GI50 [10] was 6.46 µM and the TGI [10] was 14.8 µM. The GI50 [11] was 5.91 µM, the TGI [11] was 11.7 µM and the GI50 [12] was 5.47 µM. For the same compound, the TGI [12] was 11 µM, the GI50 [13] was 3.62 µM and the TGI [13] was 11.6 µM. The GI50 [14] was 2.63 µM, the TGI [14] was 14.5 µM and the GI50 [15] was 4.46 µM. It also gave a TGI [15] of 11.5 µM, a GI50 [16] of 7.66 µM and a TGI [16] of 28.3 µM. It also gave a GI50 [17] of 2.26 µM, a TGI [17] of 12.4 µM and a GI50 [18] of 5.62 µM. The TGI [18] was 11.7 µM, the GI50 [19] was 4.91 µM and the TGI [19] was 11.6 µM. It also gave a GI50 [20] of 5.11 µM, a TGI [20] of 42.3 µM and a GI50 [21] of 4.96 µM. It also gave a TGI [21] of 17.2 µM, a GI50 [22] of 6.15 µM and a TGI [22] of 14.9 µM. For the same compound, the GI50 [23] was 8.01 µM, the TGI [23] was 30.4 µM and the GI50 [24] was 5.3 µM. For the same compound, the TGI [24] was 13.2 µM, the GI50 [25] was 0.957 µM and the TGI [25] was 2.74 µM. It also gave a GI50 [26] of 2.08 µM, a TGI [26] of 10.5 µM and a GI50 [27] of 2.46 µM. For the same compound, the TGI [27] was 8.7 µM, the GI50 [28] was 5.81 µM and the TGI [28] was 15.3 µM. For the same compound, the GI50 [29] was 8.35 µM, the TGI [29] was 26.6 µM and the GI50 [30] was 5.11 µM. It also gave a TGI [30] of 14.1 µM, a GI50 [31] of 5.73 µM and a TGI [31] of 17.1 µM. For the same compound, the GI50 [32] was 1.64 µM, the TGI [32] was 7.17 µM and the GI50 [33] was 2.78 µM. For the same compound, the TGI [33] was 8.48 µM, the GI50 [34] was 3.65 µM and the TGI [34] was 9.28 µM. It also gave a GI50 [35] of 4.37 µM, a TGI [35] of 9.67 µM and a GI50 [36] of 4.6 µM. It also gave a TGI [36] of 10.8 µM, a GI50 [37] of 4.14 µM and a TGI [37] of 33 µM. For the same compound, the GI50 [38] was 6.08 µM, the TGI [38] was 16.2 µM and the GI50 [39] was 6.9 µM. The TGI [39] was 16.3 µM, the GI50 [40] was 5.67 µM and the TGI [40] was 12.2 µM. The GI50 [41] was 5.83 µM, the TGI [41] was 12.1 µM and the GI50 [42] was 6 µM. It also gave a TGI [42] of 11.6 µM, a GI50 [43] of 7.41 µM and a TGI [43] of 31.5 µM. The GI50 [44] was 6.05 µM, the TGI [44] was 13.4 µM and the GI50 [45] was 1.42 µM. It also gave a TGI [45] of 6.02 µM, a GI50 [46] of 7.31 µM and a TGI [46] of 13.8 µM. It also gave a GI50 [47] of 5.54 µM, a TGI [47] of 13.8 µM and a GI50 [48] of 4.31 µM. It also gave a TGI [48] of 9.35 µM, a GI50 [49] of 4.8 µM and a TGI [49] of 26.8 µM. It also gave a GI50 [50] of 2.51 µM, a TGI [50] of 7.97 µM and a GI50 [51] of 4.92 µM. It also gave a TGI [51] of 10.1 µM, a GI50 [52] of 5.25 µM and a TGI [52] of 10.6 µM. It also gave a GI50 [53] of 4.76 µM, a TGI [53] of 15.3 µM and a GI50 [54] of 6.73 µM. For the same compound, the TGI [54] was 16.2 µM, the GI50 [55] was 2.47 µM and the TGI [55] was 8.55 µM. The GI50 [56] was 4.91 µM, the TGI [56] was 12.8 µM and the GI50 [57] was 6.26 µM. The TGI [57] was 13 µM, the GI50 [58] was 5.63 µM and the TGI [58] was 14 µM. For the same compound, the GI50 [59] was 3.42 µM and the TGI [59] was 11.4 µM.
